Here are results for nine compounds from patent US9026203B2, “Photosensitizing compositions” (PCI Biotech AS, priority 2009, dated 2015).

Read-outs that look alike come from different tables or passages of the source.

The nature of data set [1]: Stability of aqueous solutions of salts at 40° C., analyzed by HPLC. The format is physicochemical. The protocol: Aqueous solutions of TPPS2a salts (approx. 1% weight) were kept at 40° C. for 31 days. The solutions were analyzed by HPLC (HP 1100). The HPLC conditions were as follows:
Column: Agilent Extend C-18
Mobile phase: 85% methanol, 15% water
Detector: UV detector, 415 nm
Aqueous solutions of TPCS2a salts (approx. 1% weight) were kept at 40° C. for 31 days.

Data set [2] is described as follows: Solubility of salts in water (water added in 0.2 ml portions). The format is physicochemical.
From the text: The mixture was agitated until solid particles were broken up and dissolved.
The subject of data set [3] is target tumour (head and neck squamous cell carcinoma, osteosarcoma, skin metastases of breast cancer). The note with it: other photosensitizers formulated in non-aqueous formulations; cited from earlier work.
Data set [4] shares this test system. The format is in vivo, patients. The note with it: 0.25-1.0 mg/kg 4 days before illumination (652 nm, 60 J/cm^2), bleomycin 15 000 IU per m^2 i.v. 3 hours before illumination; a few weeks after treatment. The procedure: In addition, the patients received an intravenous injection of the cytotoxic agent bleomycin (15 000 IU per m^2 body surface) 3 hours before illumination. […] The aqueous formulation also made it possible to flush the injection needle and vein with saline after photosensitizer injection, thereby eliminating the unwanted effect of photosensitivity at or near to the injection site which is often observed for photosensitizers in non-aqueous formulations where such flushing is not possible. The patient population included patients with head and neck cancers (squamous cell carcinoma), osteosarcoma and skin metastases of breast cancer.

The mark [5] stands for this setting: aqueous solution approx. 1% weight, 40° C. for 31 days, HPLC UV 415 nm.

As to `O=S(=O)(O)c1ccc(-c2c3nc(c(-c4ccccc4)c4ccc([nH]4)c(-c4ccccc4)c4nc(c(-c5ccc(S(=O)(=O)O)cc5)c5ccc2[nH]5)C=C4)C=C3)cc1.OCCNCCO.OCCNCCO` [Example 4, Meso-Tetraphenyl Porphyrin Disulphonate bis(diethanolamine)], the Degradation result in data set [1] is given as “No degradation”.

`NCCO.NCCO.O=S(=O)(O)c1ccc(-c2c3nc(c(-c4ccc(S(=O)(=O)O)cc4)c4ccc([nH]4)c(-c4ccccc4)c4nc(c(-c5ccccc5)c5ccc2[nH]5)C=C4)C=C3)cc1` [Example 1, Meso-Tetraphenyl Porphyrin Disulphonate bis(monoethanolamine)]: the Degradation entry in data set [1] (setting [5]) is on record as “No degradation”. For the compound `O=S(=O)(O)c1ccc(-c2c3nc(c(-c4ccc(S(=O)(=O)O)cc4)c4ccc([nH]4)c(-c4ccccc4)c4nc(c(-c5ccccc5)c5ccc2[nH]5)C=C4)C=C3)cc1.OCCN1CCCC1.OCCN1CCCC1` [Example 5, Meso-Tetraphenyl Porphyrin Disulphonate bis(1-(2-hydroxyethyl)pyrrolidine)], the Degradation entry in data set [1] was “No degradation”. In the case of “Meso-Tetraphenyl Chlorin Disulphonate bis(meglumate) [Example 8]”, the Degradation entry in data set [1] (setting [5]) is given as “No degradation”. The “Minimum solubility in water” value in data set [2] (approx. 50 mg salt, water added in 0.2 ml portions until dissolved) was 38.9 mg/mL. For the compound `O=S(=O)(O)c1ccc(-c2c3nc(c(-c4ccc(S(=O)(=O)O)cc4)c4ccc([nH]4)c(-c4ccccc4)c4nc(c(-c5ccccc5)c5ccc2[nH]5)C=C4)C=C3)cc1.OCCN(CCO)CCO.OCCN(CCO)CCO` [Example 6, Meso-Tetraphenyl Porphyrin Disulphonate bis(triethanolamine)], the Degradation result in data set [1] (setting [5]) is given as “No degradation”.

Turning to `Oc1cccc(-c2c3nc(c(-c4cccc(O)c4)c4ccc([nH]4)c(-c4cccc(O)c4)c4nc(c(-c5cccc(O)c5)c5ccc2[nH]5)CC4)C=C3)c1` [temoporfin], in data set [3], the Pain on administration entry is recorded as “can be associated with strong pain”. Turning to “Meso-tetraphenyl chlorin disulphonate [TPCS2a]”, the “Clinical regression of the target tumour” value in data set [4] is reported as “Complete clinical regression of the target tumour was induced in all patients”. For `CNCC(O)C(O)C(O)C(O)CO.CNCC(O)C(O)C(O)C(O)CO.O=S(=O)(O)c1ccc(-c2c3nc(c(-c4ccccc4)c4ccc([nH]4)c(-c4ccccc4)c4nc(c(-c5ccc(S(=O)(=O)O)cc5)c5ccc2[nH]5)C=C4)C=C3)cc1` [Example 2, Meso-Tetraphenyl Porphyrin Disulphonate bis(meglumate)], in data set [1], the Degradation entry is “No degradation”. For the same compound, in data set [2], the “Minimum solubility in water” value was determined as 89.7 mg/mL. Regarding “Meso-Tetraphenyl Chlorin Disulphonate bis(monoethanolamine) [Example 7]”, the Degradation result in data set [1] was “No degradation”.
